# Source: US6437146B1, “Oxazole compounds as prostaglandin e2 agonists or antagonists” (Fujisawa Pharmaceutical Co., Ltd., priority 1998, dated 2002)
# Assays:
# [1] = target: T1, prostanoide receptor subtype (human EP4) (Homo sapiens, UniProt P35408); test: Binding assay using expression of prostanoide receptor subtype ([3H]-PGE2, membrane fraction of transfected COS-7 cells); conditions: test compound 1.0 × 10^−7M; [3H]-PGE2 binding, COS-7 membrane, human EP4, 1 hour at 30° C.
# T1 construct: expressed in transfected cells; host or cells: COS-7 cells (membrane fraction)
# Description: Binding Assay Using Expression of Prostanoide Receptor Subtype
# The membrane fraction was prepared using COS-7 cells transfected prostanoide receptor subtype (human EP4).
# The standard assay mixture contained membrane fraction, [^3H]-PGE2 in final volume of 0.25 ml was incubated for 1 hour at 30° C. The reaction was terminated by that the mixture was rapidly filtered through a glass filter (GF/B). Then the filter was washed by 4ml of ice-cold buffer at two times. The radioactivity associated with the filter was measured by liquid scintillation counting.
# In the experiment for competition of specific [^3H]-PGE2 was added at a concentration of 10 μM. The following buffer was used in all reactions.
# Buffer: 20 mM Mes (pH 6.0), 1 mM EDTA, 10 mM MgCl2
# [2] = tested on: Mesangial Proliferative Glomerulonephritis Model; test: Mesangial proliferative glomerulonephritis model (OX-7 mAb i.v.), urinary protein; format: in vivo; conditions: 24 h urine 1 day after OX-7, female Wistar rats, Normal 40.8 ± 2.3, Control 127.9 ± 12.6
# Description: Methods of Mesangial Proliferative Glomerulonephritis Model
# Female Wistar rats, 6 weeks old were purchased from SLC (Shizuoka, Japan). Glomerulosclerosis model was produced by intravenous injections (i.v.) of the monoclonal antibody (mAb), MRC OX-7 (Dainippon Co. Ltd., Osaka, Japan). The 8 weeks old rats were divided into 4 groups (10 rats/group). Group 1 was injected saline instead of OX-7 as a normal group and treated with vehicle (0.5% methylcellulose solution) only. Group 2 was also treated with the vehicle only after the injection of 1 mg/kg OX-7 as a control group. Group 3 and Group 4 were treated with N-benzylsulfonyl-3-{[(1S)-2-(4,5-diphenyloxazol-2-yl)-2-cyclohexen-1-yl]methyl}benzamide (Example 2-75), as shown in the following Table. The compound was orally given every day from 5 days before to one day after i.v. administration of the antibody. Urine was collected for 24 hours from the rats in metabolic cages 1 day after injection of OX-7 and the amount of protein in each sample was determined by the biuret method using bovine serum albumine as the standard. All the rats were sacrificed 2 days after injection of OX-7. Blood biochemical analysis was carried out. [drawing 11]
# T1 sequence (P35408 whole entry): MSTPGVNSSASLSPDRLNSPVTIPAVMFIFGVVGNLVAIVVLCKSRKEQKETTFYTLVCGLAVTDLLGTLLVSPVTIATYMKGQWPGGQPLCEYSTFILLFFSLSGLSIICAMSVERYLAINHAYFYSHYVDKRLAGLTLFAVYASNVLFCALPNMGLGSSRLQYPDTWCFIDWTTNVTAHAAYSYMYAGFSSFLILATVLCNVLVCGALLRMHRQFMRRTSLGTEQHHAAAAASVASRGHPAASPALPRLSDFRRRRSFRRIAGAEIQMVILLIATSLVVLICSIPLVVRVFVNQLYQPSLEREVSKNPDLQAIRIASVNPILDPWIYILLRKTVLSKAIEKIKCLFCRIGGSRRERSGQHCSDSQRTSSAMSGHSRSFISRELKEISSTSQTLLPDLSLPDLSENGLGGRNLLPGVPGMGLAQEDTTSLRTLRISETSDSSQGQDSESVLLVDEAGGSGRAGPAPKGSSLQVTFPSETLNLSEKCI
inhibition at 0.1 µM [1],Compound,Inhibition (%) [1],Urinary Protein ([2]; 1 mg/kg orally every day from 5 days before to one day after OX-7),Urinary Protein ([2]; 10 mg/kg orally every day from 5 days before to one day after OX-7)
≥ 80%,"O=C(NOCc1ccccc1)c1cccc(C[C@@H]2CCCC=C2c2nc(-c3ccccc3)c(-c3ccccc3)o2)c1 [Example 2-46, N-benzyloxy-3-{[(1S)-2-(4,5-diphenyloxazol-2-yl)-2-cyclohexen-1-yl]methyl}benzamide]",,,
≥ 80%,"O=C(NCC(c1ccccc1)c1ccccc1)c1cccc(C[C@@H]2CCC[C@H]2c2nc(-c3ccccc3)c(-c3ccccc3)o2)c1 [Example 1-50, N-(2,2-diphenylethyl)-3-{[(1S,2R)-2-(4,5-diphenyloxazol-2-yl)-1-cyclopentyl]methyl}benzamide]",,,
,"O=C(NCC(O)c1ccccc1)c1cccc(C[C@@H]2CCC[C@H]2c2nc(-c3ccccc3)c(-c3ccccc3)o2)c1 (stereo partly drawn) [Example 1-47, N-[(2-hydroxy-2-phenyl)ethyl]-3-{[(1S,2R)-2-(4,5-diphenyloxazol-2-yl)-1-cyclopentyl]methyl}benzamide]",≧80%,,
≥ 80%,"O=C(NS(=O)(=O)Cc1ccccc1)c1cccc(C[C@@H]2CCCC=C2c2nc(-c3ccccc3)c(-c3ccccc3)o2)c1 [Example 2-75, N-benzylsulfonyl-3-{[(1S)-2-(4,5-diphenyloxazol-2-yl)-2-cyclohexen-1-yl]methyl}benzamide]",,98.2 ± 20.9 mg/day,66.4 ± 6.9 mg/day
